Laboratory results published in article PMC5442318, “Hundreds of dual-stage antimalarial molecules discovered by a functional gametocyte screen” (Nature Communications, 2017).
Like-named read-outs stand apart in the source and are kept apart here.

Key:
[1] = tested on: P. falciparum stage V female gametocytes; assay: P. falciparum female gametocyte activation assay (Pf FGAA), 24 h or 48 h preincubation, Pfs25 expression readout; format: cell-based, Plasmodium falciparum NF54; conditions: mean, read-out: Gametocytes mean Pf FGAA IC50
How it was run: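 Female activation, triggered by xanthurenic acid and cooling, was scored by imaging Cy3-labelled anti-Pfs25 female gametes after 24 h at 26 °C. Beforehand, purified NF54 stage V gametocytes had been incubated with compound for either 24 h or 48 h (37 °C, 3% O2). Values are pIC50 from full-curve regression.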

[2] = tested on: P. falciparum stages IV–V gametocytes; assay: Gametocytocidal ATP-depletion assay (gametocyte ATP bioluminescence); format: cell-based, Plasmodium falciparum
How it was run: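 Read-out is luciferase luminescence of parasite ATP (BacTiter-Glo), standing in for viability. Double-purified mature stage IV–V gametocytes, 12,500 per well, were exposed 48 h at 37 °C in low-O2 gas; screening concentration 2 μM.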

HepG2 cells = assay: HepG2 cytotoxicity assay; format: cell-based
How it was run: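 Once incubation ended, the HepG2 plates were warmed to room temperature for 30 min alongside the CellTiter-Glo reagent. Luminescent signal was developed by reagent addition and stabilized for 10 min before plate reading.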

[3] = tested on: P. falciparum asexual blood stages; conditions: read-out: Pf Asexual blood stages XC50, cited from earlier work
[4] = TCAMS data, ref 1 (Gamo et al., 2010)
[5] = P. falciparum female gametocytes
[6] = TCAMS asexual blood stage data, ref 1 (Gamo, F. J. et al., Nature 465, 305-310, 2010)
[7] = P. falciparum female gametocyte activation assay

Row | IC50 [1] [nM] | IC50 [1, 5] [nM] | IC50 [1, 7] [nM] | SMILES | Gametocytes mean ATP inhibition at 2µM (%) [2] [%] | HepG2 cells mean TOX50 (HepG2 cells; mean) [µM] | IC50 [3, 4] [nM] | Gametocytes mean ATP inhibition at 2µM [2] [%] | HepG2 cells mean TOX50 (HepG2 cells; HepG2 cells; mean) [µM] | IC50 [3, 6] [nM] | HepG2 cells mean TOX50 (HepG2 cells; mean; HepG2 cells) [µM]
1 | – | – | 1730 | CC1(CCN2CCC(c3c[nH]c4cnccc34)CC2)CCCc2c(Br)cccc2C1=O.Cl (stereo not drawn) [TCMDC-141171] | – | – | – | 10.47 | – | 190 | 5.25
2 | – | 28 | – | Cc1c(Cl)cccc1N=C(S)NN=Cc1ccccn1 [TCMDC-125487] | – | – | – | 74.71 | >100 | 600 | –
3 | – | 5220 | – | Fc1ccc(OC2CN(c3nccc(NCc4ccccc4Cl)n3)C2)cc1 [TCMDC-135110] | – | – | – | 44.31 | 83.45 | 900 | –
4 | – | 720 | – | C[C@H](Cc1ccc(Oc2ccc(C[C@@H](C)NC[C@H](O)c3cccc(Cl)c3)cc2)cc1)NC[C@H](O)c1cccc(Cl)c1.Cl [TCMDC-131560] | – | – | – | 70.55 | 2.04 | 560 | –
5 | – | – | 1210 | CC(C)(CNC(=O)[C@H]1CCCN1)c1nc(-c2ccc(Cl)c(O)c2)c(-c2ccncc2)[nH]1.Cl [TCMDC-141060] | – | – | – | -7.23 | – | 1270 | 32.74
6 | 1390 | – | – | CCOc1ccccc1CCNC(C)Cc1ccc(C(=O)Nc2ccc(CC(C)NCCc3cccc(Cl)c3)cc2)cc1 (stereo not drawn) [TCMDC-139805] | 17.68 | 3.24 | 540 | – | – | – | –
7 | – | 2050 | – | C[C@H](Cc1ccc(CCc2ccc(C[C@@H](C)NC[C@H](O)c3cccc(Cl)c3)cc2)cc1)NC[C@H](O)c1cccc(Cl)c1.Cl [TCMDC-131551] | – | – | – | 51.33 | 4.27 | 940 | –
8 | 1980 | – | – | O=C(NCCCCN1CCC(c2ccc3c(c2OCCN2CCCC2)CCCC3)CC1)c1ccc(-c2ccc(C(F)(F)F)cc2)cc1 [TCMDC-138768] | -10.59 | 5.39 | 450 | – | – | – | –
9 | – | – | 780 | Cl.Nc1c(I)cc(C(=O)Nc2ccc3nc4c(c(N)c3c2)CCCC4)cc1I [TCMDC-142289] | – | – | – | 70.94 | – | 140 | 4.52
10 | 7020 | – | – | CN(C)CCN(C)Cc1cccc(-c2ccc3c(Nc4ccc(F)cc4Cl)ccnc3c2)c1 [TCMDC-138416] | 39.96 | 6.10 | 110 | – | – | – | –
11 | – | – | 1730 | Cc1ccc(Cn2ncc(N3CCCNCC3)c(Cl)c2=O)cc1NC(=O)Nc1ccc(-c2ccccc2)cc1 [TCMDC-141924] | – | – | – | -4.47 | – | 630 | 7.86
12 | 770 | – | – | CC(C)(C)c1ccc(-c2cc3c(ccc4nc(N)nc(N)c43)[nH]2)cc1 [TCMDC-137977] | 65.65 | 1.86 | 110 | – | – | – | –
13 | – | 210 | – | CC(Nc1cc(-c2ccccn2)nc(-c2ccccn2)n1)c1ccccc1 (stereo not drawn) [TCMDC-125420] | – | – | – | 86.62 | 6.18 | 450 | –
14 | – | 1480 | – | Cc1ccnc(NC(c2ccc(Cl)c([N+](=O)[O-])c2)c2ccc3cccnc3c2O)c1 (stereo not drawn) [TCMDC-123691] | – | – | – | 95.66 | 23.45 | 930 | –
15 | – | – | 970 | CN1CCc2cc(NS(=O)(=O)c3ccc(-c4ccc(Cl)cc4)cc3)c(OCCCN3CCCCC3)cc2CC1.Cl [TCMDC-141754] | – | – | – | 6.66 | – | 960 | 2.23
16 | – | 1360 | – | CN(CCc1ccccc1)c1ncc(-c2cccc(CNCCC3CCCN3C)c2)cn1 (stereo not drawn) [TCMDC-133143] | – | – | – | 11.85 | 2.88 | 870 | –
17 | 580 | – | – | Clc1ccc(/N=C(/NCCCCCCCN/C(=N\c2ccc(Cl)cc2)Nc2ccc(Cl)cc2)Nc2ccc(Cl)cc2)cc1 [TCMDC-137529] | 15.83 | 2.00 | 320 | – | – | – | –
18 | 1410 | – | – | COc1ccc(NC(=O)c2ccc(OCCCCCCCOc3ccc(C(=O)Nc4ccc(OC)c(N5CCN(C)CC5)c4)cc3)cc2)cc1N1CCN(C)CC1.O=C(O)C(=O)O [TCMDC-139007] | -8.09 | 4.43 | 600 | – | – | – | –
19 | – | 27.1 | – | Fc1ccc(NC(S)=NN=Cc2ccccn2)cc1 [TCMDC-125521] | – | – | – | 85.73 | >100 | 770 | –
20 | 640 | – | – | Fc1cc(Cl)ccc1Nc1ccnc2cc(-c3ccc(CN4CCOCC4)o3)ccc12 [TCMDC-138393] | 87.52 | 5.62 | 640 | – | – | – | –
21 | 1460 | – | – | COc1c(C2CCN(CCN3CCC(CNC(=O)c4ccc(-c5ccc(C#N)cc5)cc4)CC3)CC2)ccc2c1CCCC2 [TCMDC-138859] | 3.05 | 3.43 | 460 | – | – | – | –
22 | – | 580 | – | COc1cc2nc(N3CCN(c4nc(N)c5cc(OC)c(OC)cc5n4)CC3)nc(N)c2cc1OC [TCMDC-123865] | – | – | – | 90.91 | 52.49 | 150 | –
23 | – | – | 40 | O=C(O)CCSSc1cccc[n+]1[O-] [TCMDC-141973] | – | – | – | 100.49 | – | 810 | 19.05
24 | 260 | – | – | CC(C)(C)c1ccc(-c2nc3c(ccc4nc(N)nc(N)c43)[nH]2)cc1.Cl [TCMDC-137984] | 79.78 | 2.12 | 160 | – | – | – | –

Row | SMILES | IC50 [1] [nM] | IC50 [1, 5] [nM] | IC50 [1, 7] [nM] | Gametocytes mean ATP inhibition at 2µM (%) [2] [%] | HepG2 cells mean TOX50 (HepG2 cells; mean) [µM] | IC50 [3, 4] [nM] | Gametocytes mean ATP inhibition at 2µM [2] [%] | HepG2 cells mean TOX50 (HepG2 cells; HepG2 cells; mean) [µM] | IC50 [3, 6] [nM] | HepG2 cells mean TOX50 (HepG2 cells; mean; HepG2 cells) [µM]
25 | COc1c(CCNCCCCNCCc2cc(Cl)c3ccccc3c2OC)cc(Cl)c2ccccc12.CS(=O)(=O)O [TCMDC-137869] | 330 | – | – | 96.85 | 1.78 | 170 | – | – | – | –
26 | CC(C)c1ccc(CN2CCC(CNC(=O)c3cc(-c4cccc(Cl)c4)cs3)C2)cc1.O=C(O)C(F)(F)F (stereo not drawn) [TCMDC-134438] | – | 600 | – | – | – | – | -9.36 | 6.53 | 750 | –
27 | O=C(O)C(F)(F)F.O=S(=O)(NCCN1CCCC1)c1cccc(-c2ccc(CNC3Cc4ccccc4C3)cc2)c1 [TCMDC-132241] | – | 3100 | – | – | – | – | 3.92 | 6.46 | 660 | –
28 | CN1CCN(CCCN(Cc2cccc(-c3ccc(CNC4CCCC4)cc3)c2)C(=O)/C=C/c2ccccc2)CC1.O=C(O)C(F)(F)F [TCMDC-140544] | 1360 | – | – | 0.64 | 7.70 | 750 | – | – | – | –
29 | Cc1cccc(Nc2nc(N[C@@H]3CCCNC3)nc3cc[nH]c(=O)c23)c1.O=C(O)C(F)(F)F [TCMDC-134835] | – | 1850 | – | – | – | – | -27.53 | 3.25 | 680 | –
30 | CCCCOc1c(CNCCCCCCNCc2ccc3ccccc3c2OCCCC)ccc2ccccc12.CS(=O)(=O)O [TCMDC-137975] | 1490 | – | – | 37.85 | 2.21 | 870 | – | – | – | –
31 | COc1ccc2c(OC)c(CNCCCCCCNCc3ccc4cc(OC)ccc4c3OC)ccc2c1.CS(=O)(=O)O [TCMDC-137953] | 1000 | – | – | 2.77 | 2.11 | 920 | – | – | – | –
32 | COc1c(CNCCCCCCNCc2cc(Cl)c3ccccc3c2OC)cc(Cl)c2ccccc12.CS(=O)(=O)O [TCMDC-137958] | 1180 | – | – | -6.18 | 4.62 | 940 | – | – | – | –
33 | COc1ccc(CCNCCCCNCCc2ccc(OC)c3ccccc23)c2ccccc12.CS(=O)(=O)O [TCMDC-137961] | 480 | – | – | 90.63 | 2.14 | 450 | – | – | – | –
34 | Cc1ccc(Cn2nc(N3CCNCC3)ccc2=O)cc1NC(=O)Nc1ccc(-c2ccccc2)cc1.O=C(O)C(F)(F)F [TCMDC-132580] | – | 1940 | – | – | – | – | 1.45 | 7.42 | 840 | –
35 | CCn1c(-c2nonc2N)nc2c(-c3cc4ccccc4s3)ncc(C(=O)N3CCC(N)C3)c21.O=C(O)C(F)(F)F (stereo not drawn) [TCMDC-135281] | – | 450 | – | – | – | – | 66.75 | 1.00 | 870 | –
36 | COc1ccc2ccc(OC)c(CNCCCCCCNCc3c(OC)ccc4ccc(OC)cc34)c2c1.CS(=O)(=O)O [TCMDC-137796] | 1210 | – | – | 68.84 | 3.31 | 700 | – | – | – | –
